The numbers were not newly measured in US20060241549A1, “Apparatus and method for precise ozone/oxygen delivery applied to the treatment of dermatological conditions, including gas gangrene, and related disorders” (priority 2005, published 2006), which cites them from elsewhere.

The conditions of the data set: as a gas, at room temperature.

For `O=[O+][O-]` [ozone, Ozone], the half-life entry was “approximately 50 minutes”.
